21 molecules from ChEMBL document CHEMBL3576835, “Design and synthesis of potent 1,2,4-trisubstituted imidazolinone derivatives with dual p38αMAPK and ERK1/2 inhibitory activity” (Eur J Med Chem, 2015) can be followed below.

Test [1] concerns the target Mitogen-activated protein kinase 3 (Homo sapiens, UniProt P27361). Put plainly: Inhibition of ERK1 (unknown origin) using GFP-ATF2 as substrate after 1 hr by TR-FRET assay. For orientation: In TR-FRET formats the signal depends on donor and acceptor labels being close together.
The target of test [2] is Mitogen-activated protein kinase 14 (Homo sapiens, UniProt Q16539). Put plainly: Inhibition of p38alpha MAP kinase (unknown origin) using GFP-ATF2 as substrate after 1 hr by TR-FRET assay.
The target in test [3] is Mitogen-activated protein kinase 1 (Homo sapiens, UniProt P28482). In words: Inhibition of ERK2 (unknown origin) using GFP-ATF2 as substrate after 1 hr by TR-FRET assay.
For test [4], the system named is Vero. In words: Selectivity index, ratio of IC50 for African green monkey Vero cells to IC50 for human COLO205 cells. The test is classed as functional.
The test system of test [5] is HT-29. Put plainly: Selectivity index, ratio of IC50 for African green monkey Vero cells to IC50 for human HT-29 cells. It counts as functional.
For test [6], the system named is T47D. Put plainly: Selectivity index, ratio of IC50 for African green monkey Vero cells to IC50 for human T47D cells. It counts as functional.
Test [7] has as its system Vero. In words: Cytotoxicity against African green monkey Vero cells assessed as inhibition of cell viability after 72 hrs by MTT assay. It counts as cell-based. As to conditions: Chlorocebus sabaeus.
Test [8] has as its system MCF7. In words: Antiproliferative activity against human MCF7 cells assessed as inhibition of cell vaibility after 72 hrs by MTT assay. It counts as functional, cell-based. As to conditions: MCF7, 72 h.
Test [9] is described as follows: Antiproliferative activity against human COLO205 cells assessed as inhibition of cell vaibility after 72 hrs by MTT assay. It counts as functional, cell-based. As to conditions: COLO 205, 72 h. (In general: Formazan colour is commonly taken as a measure of viable cells.)
For another test, the system named is K562. In words: Antiproliferative activity against human K562 cells assessed as inhibition of cell vaibility after 72 hrs by MTT assay. The test is classed as functional, cell-based. As to conditions: K562, 72 h.
The next test relates to PC-3. In words: Antiproliferative activity against human PC3 cells assessed as inhibition of cell vaibility after 72 hrs by MTT assay. It counts as functional, cell-based. As to conditions: PC-3, 72 h.
Test [10] deals with Vero. Put plainly: Selectivity index, ratio of IC50 for African green monkey Vero cells to IC50 for human PC3 cells. The test is classed as functional.
For test [11], the system named is Vero. In words: Selectivity index, ratio of IC50 for African green monkey Vero cells to IC50 for human MDA-MB-435 cells. It counts as functional.
Test [12] deals with HT-29. In words: Antiproliferative activity against human HT-29 cells assessed as inhibition of cell vaibility after 72 hrs by MTT assay. The test is classed as functional, cell-based. As to conditions: HT-29, 72 h.
The test system of test [13] is A549. In words: Selectivity index, ratio of IC50 for African green monkey Vero cells to IC50 for human A549 cells. It counts as functional.
Test [14] has as its system T47D. In words: Antiproliferative activity against human T47D cells assessed as inhibition of cell vaibility after 72 hrs by MTT assay. The test is classed as functional, cell-based.
For test [15], the system named is MCF7. Put plainly: Selectivity index, ratio of IC50 for African green monkey Vero cells to IC50 for human MCF7 cells. It counts as functional.
The test system of test [16] is Vero. Put plainly: Selectivity index, ratio of IC50 for African green monkey Vero cells to IC50 for human LOXIMVI cells. The test is classed as functional.
The nature of test [17]: Antiproliferative activity against human LOXIMVI cells assessed as inhibition of cell vaibility after 72 hrs by MTT assay. The test is classed as functional, cell-based. As to conditions: LOX IMVI.
For the next test, the system named is MDA-MB-435. In words: Antiproliferative activity against human MDA-MB-435 cells assessed as inhibition of cell vaibility after 72 hrs by MTT assay. The test is classed as functional, cell-based. As to conditions: MDA-MB-435, 72 h.
The test system of test [18] is A549. In words: Antiproliferative activity against human A549 cells assessed as inhibition of cell vaibility after 72 hrs by MTT assay. Conditions: A549, 72 h. The test is classed as functional, cell-based.

Each structure is given as a SMILES string.

Sequence of Mitogen-activated protein kinase 1 (P28482 whole entry): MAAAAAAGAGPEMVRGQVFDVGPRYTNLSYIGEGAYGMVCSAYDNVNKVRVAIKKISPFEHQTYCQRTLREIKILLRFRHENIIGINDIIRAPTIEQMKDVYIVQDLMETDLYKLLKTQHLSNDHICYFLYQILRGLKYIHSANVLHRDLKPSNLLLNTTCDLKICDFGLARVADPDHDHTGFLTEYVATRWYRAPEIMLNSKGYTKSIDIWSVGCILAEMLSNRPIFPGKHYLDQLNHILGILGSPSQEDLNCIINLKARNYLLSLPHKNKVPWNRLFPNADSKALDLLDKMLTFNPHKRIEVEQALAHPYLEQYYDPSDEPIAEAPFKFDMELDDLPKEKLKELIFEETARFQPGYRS
Sequence of Mitogen-activated protein kinase 3 (P27361 whole entry): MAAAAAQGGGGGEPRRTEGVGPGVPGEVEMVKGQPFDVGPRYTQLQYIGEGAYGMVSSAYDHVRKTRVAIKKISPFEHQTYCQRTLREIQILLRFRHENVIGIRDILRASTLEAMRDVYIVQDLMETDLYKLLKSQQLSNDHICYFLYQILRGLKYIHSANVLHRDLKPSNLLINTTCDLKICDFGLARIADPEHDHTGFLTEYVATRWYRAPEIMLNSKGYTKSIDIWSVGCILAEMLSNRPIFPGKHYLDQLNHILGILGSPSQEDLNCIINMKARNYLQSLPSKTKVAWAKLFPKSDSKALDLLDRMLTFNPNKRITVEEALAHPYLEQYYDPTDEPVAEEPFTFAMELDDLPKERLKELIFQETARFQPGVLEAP
Sequence of Mitogen-activated protein kinase 14 (Q16539 whole entry): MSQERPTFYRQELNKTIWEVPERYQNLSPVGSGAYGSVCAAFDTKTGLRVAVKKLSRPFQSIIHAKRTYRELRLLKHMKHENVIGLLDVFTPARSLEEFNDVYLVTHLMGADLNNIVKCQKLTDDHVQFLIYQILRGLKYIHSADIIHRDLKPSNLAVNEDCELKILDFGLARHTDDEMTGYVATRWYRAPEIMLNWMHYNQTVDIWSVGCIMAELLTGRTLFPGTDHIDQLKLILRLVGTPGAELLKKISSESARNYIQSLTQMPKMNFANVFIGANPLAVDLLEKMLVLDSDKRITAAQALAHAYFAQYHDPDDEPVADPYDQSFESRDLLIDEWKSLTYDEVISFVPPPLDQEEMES

In the case of `COc1cccc(N2C(=O)/C(=C/c3ccc(OCC(=O)Nc4ccccc4)cc3)N=C2c2ccccc2)c1`, the results for the concentration for half-maximal inhibition (IC50) in test [1], in [2] and in [3] were 65 nM, 35 nM and 54 nM, respectively.
For `COc1cccc(N2C(=O)/C(=C/c3ccc(OCC(=O)Nc4ccccc4C)cc3)N=C2c2ccccc2)c1` the same measures were 43 nM, 66 nM and 44 nM.
For `COc1cccc(N2C(=O)/C(=C/c3ccc(OCC(=O)Nc4cccc(C)c4)cc3)N=C2c2ccccc2)c1` the same measures were 20 nM, 87 nM and 43 nM.
Take `COc1cccc(N2C(=O)/C(=C/c3ccc(OCC(=O)Nc4ccc(C)cc4)cc3)N=C2c2ccccc2)c1`: the “Ratio IC50” value in the test on Vero [4] is 1.85; with HT-29 [5] it was 2.98; with T47D [6], 25.88; in the test with Vero [10], 20.16; in the test on Vero [11], 75.39; in the test with A549 [13], 2.66. Moreover, the “Ratio IC50” value is reported as 46.86 in the test on MCF7 [15] and 22.81 in the test with Vero [16]. Also, the IC50 (in general, the midpoint of a concentration-inhibition curve) in the test on Vero [7] was 17300 nM; in the test on MCF7 [8], 370 nM; in [9], 9400 nM; with K562, greater than 100000 nM; in the test with PC-3, 860 nM; in the test with HT-29 [12], 5800 nM. Further, the IC50 in test [1] came to 25 nM; in the test with T47D [14], 670 nM; in test [17], 760 nM; in the test with MDA-MB-435, 230 nM; in [2], 4.5 nM; in the test with A549 [18], 6500 nM. In addition, the IC50 in test [3] amounted to 3.2 nM.
As for `COc1cccc(N2C(=O)/C(=C/c3ccc(OCC(=O)Nc4ccccc4OC)cc3)N=C2c2ccccc2)c1`, the concentration for half-maximal inhibition (IC50) was 46 nM in test [1], 54 nM in test [2] and 4.7 nM in test [3].
Taken in the same sequence, the figures for `COc1cccc(NC(=O)COc2ccc(/C=C3\N=C(c4ccccc4)N(c4cccc(OC)c4)C3=O)cc2)c1` were 57 nM, 6.5 nM and 5.4 nM.
Taken in the same sequence, the figures for `COc1ccc(NC(=O)COc2ccc(/C=C3\N=C(c4ccccc4)N(c4cccc(OC)c4)C3=O)cc2)cc1` were 76 nM, 4.3 nM and 4.3 nM.
With `COc1cccc(N2C(=O)/C(=C/c3ccc(OCC(=O)Nc4ccccc4Cl)cc3)N=C2c2ccccc2)c1`, the half-maximal inhibitory concentration (IC50) in test [1] was 87 nM; in [2], 5.6 nM; in [3], 5.3 nM.
For `COc1cccc(N2C(=O)/C(=C/c3ccc(OCC(=O)Nc4cccc(Cl)c4)cc3)N=C2c2ccccc2)c1` the same measures were 89 nM, 3.7 nM and 3.4 nM.
For `COc1cccc(N2C(=O)/C(=C/c3ccc(OCC(=O)Nc4ccc(Cl)cc4)cc3)N=C2c2ccccc2)c1` the same measures were 95 nM, 4.6 nM and 4.6 nM.
For `COc1ccc(N2C(=O)/C(=C/c3ccc(OCC(=O)Nc4ccccc4)cc3)N=C2c2ccccc2)cc1` the same measures were 23 nM, 354 nM and 23 nM.
As for `COc1ccc(N2C(=O)/C(=C/c3ccc(OCC(=O)Nc4ccccc4C)cc3)N=C2c2ccccc2)cc1`, the figures for the IC50 in [1], in test [2] and in test [3] were 32 nM, 56 nM and 23 nM, respectively.
For `COc1ccc(N2C(=O)/C(=C/c3ccc(OCC(=O)Nc4cccc(C)c4)cc3)N=C2c2ccccc2)cc1` the same measures were 89 nM, 77 nM and 78 nM.
Taken in the same sequence, the figures for `COc1ccc(N2C(=O)/C(=C/c3ccc(OCC(=O)Nc4ccc(C)cc4)cc3)N=C2c2ccccc2)cc1` were 23 nM, 345 nM and 43 nM.
Taken in the same sequence, the figures for `COc1ccc(N2C(=O)/C(=C/c3ccc(OCC(=O)Nc4ccccc4OC)cc3)N=C2c2ccccc2)cc1` were 43 nM, 34 nM and 89 nM.
On to `COc1ccc(N2C(=O)/C(=C/c3ccc(OCC(=O)Nc4cccc(OC)c4)cc3)N=C2c2ccccc2)cc1`, for which the IC50 in [1] stood at 21 nM; in test [2] it was 23 nM; in [3] it was 21 nM.
For the molecule `COc1ccc(NC(=O)COc2ccc(/C=C3\N=C(c4ccccc4)N(c4ccc(OC)cc4)C3=O)cc2)cc1`, the half-maximal inhibitory concentration (IC50) in [1] was 23 nM; in [2] it was 345 nM; in test [3], 2.3 nM.
On to `COc1ccc(N2C(=O)/C(=C/c3ccc(OCC(=O)Nc4ccccc4Cl)cc3)N=C2c2ccccc2)cc1`, for which the “Ratio IC50” value in the test on Vero [4] stood at 2.93; in the test with HT-29 [5] it was 2.93; in the test on T47D [6], 26.4; in the test on Vero [10], 13.33; in the test on Vero [11], 264; in the test with A549 [13], 2.69. Also, the “Ratio IC50” value in the test on MCF7 [15] amounted to 24.9; in the test with Vero [16] it was 101.54. For the same molecule, the 50% inhibitory concentration (IC50) is 13200 nM in the test on Vero [7]; 530 nM in the test on MCF7 [8]; 4500 nM in [9]; greater than 100000 nM in the test on K562; 990 nM in the test with PC-3; 4500 nM in the test on HT-29 [12]. Also, the IC50 in [1] was determined as 24 nM; with T47D [14], 500 nM; in [17], 130 nM; with MDA-MB-435 it was 50 nM; in test [2], 4.7 nM; with A549 [18] it was 4900 nM. Moreover, in test [3], the concentration for half-maximal inhibition (IC50) turned out to be 3.5 nM.
In the case of `COc1ccc(N2C(=O)/C(=C/c3ccc(OCC(=O)Nc4cccc(Cl)c4)cc3)N=C2c2ccccc2)cc1`, the IC50 in [1] came out at 35 nM; in test [2] it was 4.5 nM; in test [3], 7 nM.
Taken in the same sequence, the figures for `COc1ccc(N2C(=O)/C(=C/c3ccc(OCC(=O)Nc4ccc(Cl)cc4)cc3)N=C2c2ccccc2)cc1` were 47 nM, 44 nM and 4.5 nM.
Regarding `CNC(=O)c1cc(Oc2ccc(NC(=O)Nc3ccc(Cl)c(C(F)(F)F)c3)cc2)ccn1` [SORAFENIB], the half-inhibitory concentration (IC50) with MCF7 [8] came to 780 nM; in test [9], 870 nM; in the test on K562, 1220 nM; with PC-3, 4130 nM; with HT-29 [12] it was 390 nM; with T47D [14] it was 610 nM. Besides, the 50% inhibitory concentration (IC50) was determined as 4250 nM in test [17], 1670 nM with MDA-MB-435 and 3190 nM with A549 [18].
